{"source": "paper PMC3366831", "about": "(The Journal of Biological Chemistry, 2012)", "key": {"PAPSS2": {"biological_target": "T1, PAPSS2 (Homo sapiens, UniProt O95340)", "T1 sequence (O95340 1-614)": "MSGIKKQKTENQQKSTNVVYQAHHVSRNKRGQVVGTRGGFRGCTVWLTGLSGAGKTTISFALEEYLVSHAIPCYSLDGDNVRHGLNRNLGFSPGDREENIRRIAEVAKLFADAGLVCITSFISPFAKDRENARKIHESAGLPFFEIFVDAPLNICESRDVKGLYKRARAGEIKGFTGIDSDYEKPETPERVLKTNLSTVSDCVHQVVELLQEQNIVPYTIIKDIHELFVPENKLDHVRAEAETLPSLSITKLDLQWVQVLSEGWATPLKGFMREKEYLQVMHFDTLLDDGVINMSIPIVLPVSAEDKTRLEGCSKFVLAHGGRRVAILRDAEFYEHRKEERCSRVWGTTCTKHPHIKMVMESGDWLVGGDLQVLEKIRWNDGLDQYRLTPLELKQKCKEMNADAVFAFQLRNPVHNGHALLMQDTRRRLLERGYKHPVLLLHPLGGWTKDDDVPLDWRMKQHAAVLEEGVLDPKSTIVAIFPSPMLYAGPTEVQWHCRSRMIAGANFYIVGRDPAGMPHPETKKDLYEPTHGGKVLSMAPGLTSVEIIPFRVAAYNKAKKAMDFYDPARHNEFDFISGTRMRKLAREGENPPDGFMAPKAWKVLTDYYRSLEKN", "experiment": "thermal unfolding by CD at […] nm", "type": "binding", "settings": "about 0.5 μM protein, pH 7.3, 1 mM MgCl2, 25 °C/h"}, "PAPSS1": {"biological_target": "T2, PAPSS1 (Homo sapiens, UniProt O43252)", "T2 sequence (O43252 1-624)": "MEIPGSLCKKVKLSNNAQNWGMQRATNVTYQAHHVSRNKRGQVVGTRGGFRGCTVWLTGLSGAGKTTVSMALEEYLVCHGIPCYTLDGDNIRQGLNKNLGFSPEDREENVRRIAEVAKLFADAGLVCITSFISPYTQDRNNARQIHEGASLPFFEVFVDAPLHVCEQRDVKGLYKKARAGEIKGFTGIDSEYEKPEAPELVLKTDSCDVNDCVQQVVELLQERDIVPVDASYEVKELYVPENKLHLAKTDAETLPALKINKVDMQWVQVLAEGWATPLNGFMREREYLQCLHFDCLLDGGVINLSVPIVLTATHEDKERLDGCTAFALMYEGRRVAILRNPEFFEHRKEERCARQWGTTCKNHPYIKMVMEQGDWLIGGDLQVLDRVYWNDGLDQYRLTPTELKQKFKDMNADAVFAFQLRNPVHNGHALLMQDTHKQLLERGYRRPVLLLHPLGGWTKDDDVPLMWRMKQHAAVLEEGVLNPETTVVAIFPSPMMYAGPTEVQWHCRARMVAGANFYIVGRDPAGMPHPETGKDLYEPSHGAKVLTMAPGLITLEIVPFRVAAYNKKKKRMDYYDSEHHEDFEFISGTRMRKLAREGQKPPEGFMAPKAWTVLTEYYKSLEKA", "experiment": "thermal unfolding by CD at […] nm", "type": "binding", "settings": "about 0.5 μM protein, pH 7.3, 1 mM MgCl2, 25 °C/h"}}}
{"smiles": "Nc1ncnc2c1ncn2[C@@H]1O[C@H](COP(=O)(O)OS(=O)(=O)O)[C@@H](OP(=O)(O)O)[C@H]1O", "note": "[PAPS]", "values": [{"measurement": "thermal unfolding by CD at 225 nm", "setting": "PAPSS2; 50 μM PAPS", "value": "moderate effects on PAPSS1 and -S2 stability were observed for ADP and PAPS"}, {"measurement": "thermal unfolding by CD at 225 nm", "setting": "PAPSS1; 50 μM PAPS", "value": "moderate effects on PAPSS1 and -S2 stability were observed for ADP and PAPS"}]}
{"smiles": "Nc1ncnc2c1ncn2[C@@H]1O[C@H](COP(=O)(O)OP(=O)(O)OP(=O)(O)O)[C@@H](O)[C@H]1O", "note": "[ATP]", "values": [{"measurement": "thermal unfolding by CD at 225 nm", "setting": "PAPSS2; 100 μM ATP", "value": "ATP had a slight stabilizing effect on PAPSS2"}]}
{"smiles": "Nc1ncnc2c1ncn2[C@@H]1O[C@H](COP(=O)(O)OP(=O)(O)O)[C@@H](O)[C@H]1O", "note": "[ADP]", "values": [{"measurement": "thermal unfolding by CD at 225 nm", "setting": "PAPSS2; 100 μM ADP", "value": "moderate effects on PAPSS1 and -S2 stability were observed for ADP and PAPS"}, {"measurement": "thermal unfolding by CD at 225 nm", "setting": "PAPSS1; 100 μM ADP", "value": "moderate effects on PAPSS1 and -S2 stability were observed for ADP and PAPS"}]}
